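Five compound concentrations were applied to cells in 96-well plates for 48 hours; endpoints were derived by simple linear interpolation of the resulting dose-response curve. GI50 is the concentration that inhibits growth by half.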 The source made the active and inactive calls. Cut-off read from the data, not from the text of the source: active = GI50 up to about 1.1 µM and inactive = higher.
Assays:
Assay in all cases: NCI tumour cell line growth inhibition, 48 h
M14 = tested on: M14
RPMI-8226 = tested on: RPMI-8226
HCT-116 = tested on: HCT-116
A498 = tested on: A498
SK-MEL-28 = tested on: SK-MEL-28
UO-31 = tested on: UO-31
SF-268 = tested on: SF-268
HCT-15 = tested on: HCT-15
786-0 = tested on: 786-0
SNB-19 = tested on: SNB-19
UACC-257 = tested on: UACC-257
OVCAR-4 = tested on: OVCAR-4
DMS-273 = tested on: DMS-273
HOP-62 = tested on: HOP-62
CAKI-1 = tested on: CAKI-1

| Structure (SMILES) | GI50 (M14) | GI50 (RPMI-8226) | GI50 (HCT-116) | GI50 (A498) | GI50 (SK-MEL-28) | GI50 (UO-31) | GI50 (SF-268) | GI50 (HCT-15) | GI50 (786-0) | GI50 (SNB-19) | GI50 (UACC-257) | GI50 (OVCAR-4) | GI50 (DMS-273) | GI50 (HOP-62) | GI50 (CAKI-1) |
| --- | --- | --- | --- | --- | --- | --- | --- | --- | --- | --- | --- | --- | --- | --- | --- |
| C=CCN(N=O)C(=O)ON1C(=O)CCC1=O | > 100 µM (inactive) | > 100 µM (inactive) | > 100 µM (inactive) | > 100 µM (inactive) | > 100 µM (inactive) | > 100 µM (inactive) | > 100 µM (inactive) | > 100 µM | > 100 µM (inactive) | > 100 µM (inactive) | > 100 µM (inactive) | > 100 µM (inactive) | > 100 µM (inactive) | > 100 µM (inactive) |  |
| O=C1c2ccccc2C2(O)Nc3c(ccc4ccccc34)C12O (stereo not drawn) | > 100 µM (inactive) | > 100 µM (inactive) | > 100 µM (inactive) | > 100 µM (inactive) | > 100 µM (inactive) | 95.5 µM (inactive) | > 100 µM (inactive) | > 100 µM | > 100 µM (inactive) | 85.3 µM (inactive) | > 100 µM (inactive) | > 100 µM (inactive) | > 100 µM (inactive) | > 100 µM (inactive) | > 100 µM (inactive) |
| c1ccc(/N=C2\c3ccccc3C3=NCCCN32)cc1 | > 100 µM (inactive) | 30.5 µM (inactive) | 40.2 µM (inactive) | 43.2 µM (inactive) | > 100 µM (inactive) | 29.2 µM (inactive) | 81.5 µM (inactive) | 35.6 µM | 90.4 µM (inactive) | 85.9 µM (inactive) | 40.4 µM (inactive) | 42.2 µM (inactive) | 36.3 µM (inactive) | 67.6 µM (inactive) | 27.1 µM (inactive) |
| CCC(C)c1cccc(C)c1NC(=O)C(=O)Cc1nc2ccccc2s1 (stereo not drawn) | > 100 µM (inactive) | > 100 µM (inactive) | > 100 µM (inactive) | > 100 µM (inactive) | > 100 µM (inactive) | > 100 µM (inactive) | > 100 µM (inactive) | > 100 µM | > 100 µM (inactive) | > 100 µM (inactive) | > 100 µM (inactive) | > 100 µM (inactive) | > 100 µM (inactive) | > 100 µM (inactive) | > 100 µM (inactive) |
| CCCCCCCCCCCCCCCCOC(=O)C(C(=O)OCCCCCCCCCCCCCCCC)[N+](C)(C)CCOC(C)=O | 19.7 µM (inactive) |  | 16.4 µM (inactive) | 23.6 µM (inactive) | 24 µM (inactive) | 19.7 µM (inactive) | 17.9 µM (inactive) | 22.1 µM | 14.3 µM (inactive) | 13.4 µM (inactive) | 19.1 µM (inactive) | 15.9 µM (inactive) | 9.2 µM (inactive) | 10.9 µM (inactive) | 12.6 µM (inactive) |
| O=C(NCCOCCO)c1ccc(O)cc1 | > 100 µM (inactive) | > 100 µM (inactive) | > 100 µM (inactive) | > 100 µM (inactive) | > 100 µM (inactive) | > 100 µM (inactive) | > 100 µM (inactive) | > 100 µM | > 100 µM (inactive) |  |  |  | > 100 µM (inactive) | > 100 µM (inactive) |  |
| COCCCCCC(=O)CP(=O)(OC)OC | > 100 µM (inactive) | > 100 µM (inactive) | > 100 µM (inactive) | > 100 µM (inactive) | > 100 µM (inactive) | > 100 µM (inactive) | > 100 µM (inactive) | > 100 µM | > 100 µM (inactive) | > 100 µM (inactive) | > 100 µM (inactive) |  | > 100 µM (inactive) | > 100 µM (inactive) | > 100 µM (inactive) |
| Nc1ccccc1N | > 100 µM (inactive) | 32 µM (inactive) | > 100 µM (inactive) | > 100 µM (inactive) | > 100 µM (inactive) | > 100 µM (inactive) | > 100 µM (inactive) | > 100 µM | > 100 µM (inactive) | > 100 µM (inactive) |  | > 100 µM (inactive) | > 100 µM (inactive) | > 100 µM (inactive) | > 100 µM (inactive) |
| CCN(CC)CC(C(C)=O)C(c1ccccc1)c1c(O)c2ccccc2oc1=O (stereo not drawn) | > 100 µM (inactive) | > 100 µM (inactive) | > 100 µM (inactive) | > 100 µM (inactive) | > 100 µM (inactive) | > 100 µM (inactive) | > 100 µM (inactive) | > 100 µM | > 100 µM (inactive) | > 100 µM (inactive) | 63.1 µM (inactive) | > 100 µM (inactive) | > 100 µM (inactive) | > 100 µM (inactive) | > 100 µM (inactive) |
| CCSC1(SCC)CC(Cc2ccc(OC)cc2)N(/C=N/C(C)(C)C)C1 (stereo not drawn) | 14.7 µM (inactive) |  | 20.9 µM (inactive) | 33.6 µM (inactive) | 35.8 µM (inactive) | 17.3 µM (inactive) | 61 µM (inactive) | 25.8 µM | 32.1 µM (inactive) | 38.7 µM (inactive) | 20.2 µM (inactive) | 29.7 µM (inactive) | 37.4 µM (inactive) | 56.9 µM (inactive) | 21 µM (inactive) |
| O=C1OC(/C=C/c2ccccc2)C(=O)C1=O (stereo not drawn) | > 100 µM (inactive) | > 100 µM (inactive) |  | > 100 µM (inactive) | > 100 µM (inactive) | > 100 µM (inactive) | > 100 µM (inactive) | > 100 µM | > 100 µM (inactive) | > 100 µM (inactive) | > 100 µM (inactive) | > 100 µM (inactive) | > 100 µM (inactive) | > 100 µM (inactive) |  |
| COc1ccc(NC(=O)CC/C(CC(=O)c2ccco2)=N/Nc2ccc([N+](=O)[O-])cc2[N+](=O)[O-])cc1 | > 100 µM (inactive) | 17.1 µM (inactive) | 76.2 µM (inactive) | > 100 µM (inactive) | > 100 µM (inactive) | > 100 µM (inactive) | 64 µM (inactive) | > 100 µM | > 100 µM (inactive) | > 100 µM (inactive) | 49.8 µM (inactive) | 96.2 µM (inactive) | 57.7 µM (inactive) | > 100 µM (inactive) | > 100 µM (inactive) |
| COC(=O)[C@@H]1C(=O)O[C@@H](c2ccc3c(c2)OCO3)[C@@H]1C(=O)OC.COC(=O)[C@H]1C(=O)O[C@@H](c2ccc3c(c2)OCO3)[C@@H]1C(=O)OC | > 100 µM (inactive) | > 100 µM (inactive) | > 100 µM (inactive) | > 100 µM (inactive) | > 100 µM (inactive) | > 100 µM (inactive) | > 100 µM (inactive) | > 100 µM | > 100 µM (inactive) | > 100 µM (inactive) | > 100 µM (inactive) | > 100 µM (inactive) | > 100 µM (inactive) | > 100 µM (inactive) | > 100 µM (inactive) |
| NC(=O)Nc1c([N+](=O)[O-])cc(C(F)(F)F)cc1[N+](=O)[O-] | > 100 µM (inactive) | > 100 µM (inactive) | 59.4 µM (inactive) | > 100 µM (inactive) | > 100 µM (inactive) | > 100 µM (inactive) | > 100 µM (inactive) | 65.8 µM | > 100 µM (inactive) | > 100 µM (inactive) | 72.3 µM (inactive) | 63.1 µM (inactive) | > 100 µM (inactive) | > 100 µM (inactive) | > 100 µM (inactive) |
| CC(C)=CCC/C(C)=C/CC/C(C)=C/CC/C=C(\C)CC/C=C(\C)CCC1SC1(C)C (stereo not drawn) | > 100 µM (inactive) | > 100 µM (inactive) | > 100 µM (inactive) | > 100 µM (inactive) | > 100 µM (inactive) | > 100 µM (inactive) | > 100 µM (inactive) | > 100 µM | > 100 µM (inactive) | > 100 µM (inactive) | > 100 µM (inactive) | > 100 µM (inactive) | > 100 µM (inactive) | > 100 µM (inactive) | > 100 µM (inactive) |
| Cc1cc(Cl)cc2c1NC(=O)C2=O.O=C(c1ccccc1)C(F)(F)F | 67 µM (inactive) |  | 59.8 µM (inactive) | > 100 µM (inactive) | 93.1 µM (inactive) | 91.6 µM (inactive) | > 100 µM (inactive) | 64.4 µM | 70.1 µM (inactive) | 72.4 µM (inactive) | 27.5 µM (inactive) | 33 µM (inactive) | 50.7 µM (inactive) | > 100 µM (inactive) | 39.3 µM (inactive) |

— ChEMBL document CHEMBL1201862, “PubChem BioAssay data set” (2004)
